Patent US20180244653A1, “SELECTIVE ALPHA-7 NICOTINIC RECEPTOR AGONISTS AND METHODS FOR MAKING AND USING THEM” (THE REGENTS OF THE UNIVERSITY OF CALIFORNIA, priority 2015, published 2018)
“And” between values parts separate entries of the source, which are not always exact repeats. Identical values can stand only once. “Also recorded” adds a separate entry of the source. Like-named read-outs stand apart in the source and are kept apart here.

Experiments:
Experiment in all cases: FRET functional assay (agonist/antagonist) using LGIC-CNiFERs
Format in all cases: cell-based
α7-nAChRs = target: T1, α7-nAChRs (Homo sapiens, UniProt P36544); settings: for EC50: in presence of 10 μM PNU-120596, * partial agonist, read-out: Agonist EC50 ± SD, α7; for Functional properties at α7-nAChRs (agonist / antagonist): functional screening and characterization
T1 construct: expressed in transfected cells; host or cells: HEKtsA201 cells co-expressing TN-XXL
T1 sequence (P36544 23-502): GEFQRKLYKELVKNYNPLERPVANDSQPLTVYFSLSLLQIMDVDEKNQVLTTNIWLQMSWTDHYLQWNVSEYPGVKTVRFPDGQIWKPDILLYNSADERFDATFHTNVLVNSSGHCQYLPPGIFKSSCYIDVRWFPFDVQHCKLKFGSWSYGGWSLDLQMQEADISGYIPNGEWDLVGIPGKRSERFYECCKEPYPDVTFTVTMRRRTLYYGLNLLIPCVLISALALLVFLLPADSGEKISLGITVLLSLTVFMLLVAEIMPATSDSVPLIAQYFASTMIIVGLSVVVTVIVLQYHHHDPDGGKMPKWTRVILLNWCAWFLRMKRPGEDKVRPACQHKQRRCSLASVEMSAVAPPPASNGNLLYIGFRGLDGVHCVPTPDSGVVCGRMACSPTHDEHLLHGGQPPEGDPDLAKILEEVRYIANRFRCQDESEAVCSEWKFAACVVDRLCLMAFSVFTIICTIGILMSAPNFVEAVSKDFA
Protocol: (§1) Initially, the agonist properties of tested compounds were assessed directly. […] All α7-nAChR functional assays were performed in the presence of PNU-120596, an α7-nAChR positive allosteric modulator (PAM), to increase signal and delay the sensitization state of α7-nAChRs enabling the measurement of more prolonged FRET signals.^29 Compounds having agonist responses of >0.20 were determined for EC50, and compounds having inhibition fraction of >0.50 were determined for KA.^25 EC50>13.3 μM and KA>10 μM which are a screening concentration for agonist and antagonist, respectively were reported compounds not taken for further in the screening of receptor occupation and responses.
(§2) Agonist and antagonist elicited responses were characterized using the above CNiFER cell expressing Cys-loop ligand-gated ion channel (LGIC) receptors. […] A 96-well black, clear-bottom microplate (Greiner bio-one, Germany) was coated with poly-D-lysine (Sigma-Aldrich, St. Louis, Mo.) 50 μL/well for 30 min and washed out with Phosphate-Buffered Saline (PBS) (Corning, Cellgro, Manassas, Va.) before plating the cells. After plating and incubation at 37° C. for 1 day, the media was replaced with 100 μL of artificial cerebrospinal fluid (aCSF: 121 mM NaCl, 5 mM KCl, 26 mM NaHCO3, 1.2 mM NaH2PO4H2O, 10 mM glucose, 2.4 mM CaCl2, 1.3 mM MgSO4, 5 mM HEPES, pH 7.4) for 4032 and 5HT3A receptors, whereas 10 μM PNU-120596 (Tocris Bioscience, Bristol, UK) in aCSF with 30 min incubation at 37° C. was used for α7-nAChR. The tested compounds were prepared in aCSF for all receptors except α7-nAChR, where 10 μM PNU-120596, a positive allosteric modulator (PAM) was used. The prepared compounds were added in a separate 96-well polypropylene plate (Costar, Corning, N.Y.). Experiments were conducted at 37° C. using 436-nm excitation. Emitted light was collected at 485 nm and 528 nm. Basal fluorescence was recorded for 30 s, followed by addition of 50 μL of ligand (first addition). Measurements were made at 3.84 s intervals for 2 min to measure the agonistic effect. […] Agonist and antagonist properties were sequentially screened at the final concentration of 13.3 and 10 μM, respectively, which differed from the screening concentration from intact cell binding assay (10 μM).

5HT3A receptors = target: T2, 5HT3A receptors (Mus musculus, UniProt P23979); settings: for Functional properties at 5HT3A receptors (agonist / antagonist, type): functional screening and characterization
T2 construct: expressed in transfected cells; host or cells: HEK293 cells co-expressing TN-XXL
T2 sequence (P23979 24-489): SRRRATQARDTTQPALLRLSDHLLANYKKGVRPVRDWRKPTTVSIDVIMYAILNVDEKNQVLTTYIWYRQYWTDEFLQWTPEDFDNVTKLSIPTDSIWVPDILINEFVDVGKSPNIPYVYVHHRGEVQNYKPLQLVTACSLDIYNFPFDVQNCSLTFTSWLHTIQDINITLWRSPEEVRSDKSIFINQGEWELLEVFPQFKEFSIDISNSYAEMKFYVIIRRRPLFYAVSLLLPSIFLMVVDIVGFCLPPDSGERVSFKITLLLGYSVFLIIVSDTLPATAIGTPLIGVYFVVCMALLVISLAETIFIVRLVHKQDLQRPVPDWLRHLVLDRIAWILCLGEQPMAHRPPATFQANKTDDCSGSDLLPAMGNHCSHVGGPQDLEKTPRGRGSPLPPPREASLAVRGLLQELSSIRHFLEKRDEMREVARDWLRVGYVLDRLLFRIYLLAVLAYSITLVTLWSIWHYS
Protocol: as §1, §2

α4β2-nAChRs = target: T3, α4β2-nAChRs (Homo sapiens, UniProt P17787+P43681); settings: for Functional properties at α4β2-nAChRs (agonist / antagonist, type): functional screening and characterization
T3 construct: expressed in transfected cells; host or cells: HEKtsA201 cells co-expressing TN-XXL
T3 sequence (P43681 29-627 limits assumed): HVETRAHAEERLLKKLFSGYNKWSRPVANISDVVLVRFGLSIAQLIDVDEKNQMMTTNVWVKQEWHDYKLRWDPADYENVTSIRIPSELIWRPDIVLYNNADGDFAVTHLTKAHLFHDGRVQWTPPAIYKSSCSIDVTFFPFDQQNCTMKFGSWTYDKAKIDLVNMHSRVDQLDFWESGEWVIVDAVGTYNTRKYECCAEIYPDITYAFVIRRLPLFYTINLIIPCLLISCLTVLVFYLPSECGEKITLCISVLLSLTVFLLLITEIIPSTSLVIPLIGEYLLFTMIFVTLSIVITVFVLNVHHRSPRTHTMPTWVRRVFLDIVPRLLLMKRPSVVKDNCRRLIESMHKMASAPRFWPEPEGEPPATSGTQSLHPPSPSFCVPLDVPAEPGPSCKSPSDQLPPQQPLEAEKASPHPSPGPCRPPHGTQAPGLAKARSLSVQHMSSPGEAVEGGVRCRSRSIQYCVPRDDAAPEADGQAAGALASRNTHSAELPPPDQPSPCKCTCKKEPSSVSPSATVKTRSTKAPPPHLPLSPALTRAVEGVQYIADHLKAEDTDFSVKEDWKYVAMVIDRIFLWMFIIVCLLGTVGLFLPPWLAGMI
T3 sequence (P17787 26-502): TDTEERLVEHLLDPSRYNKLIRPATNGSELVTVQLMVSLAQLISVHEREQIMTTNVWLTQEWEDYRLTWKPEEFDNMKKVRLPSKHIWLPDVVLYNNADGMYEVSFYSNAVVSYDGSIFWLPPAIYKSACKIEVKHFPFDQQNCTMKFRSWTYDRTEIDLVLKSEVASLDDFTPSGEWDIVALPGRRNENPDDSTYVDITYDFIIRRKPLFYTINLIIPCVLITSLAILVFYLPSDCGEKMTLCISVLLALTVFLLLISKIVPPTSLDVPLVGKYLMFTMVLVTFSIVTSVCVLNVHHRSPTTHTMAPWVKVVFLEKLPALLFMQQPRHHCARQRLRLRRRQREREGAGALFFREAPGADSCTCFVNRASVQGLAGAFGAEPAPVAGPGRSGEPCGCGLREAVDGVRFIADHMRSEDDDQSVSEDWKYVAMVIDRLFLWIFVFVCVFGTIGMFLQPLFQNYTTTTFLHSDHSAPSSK
Protocol: as §1, §2

[1] = >10 = did not pass initial screen
[2] = read-out: Antagonist KA ± SD, α4β2
[3] = competitive antagonist (^C), >10 = did not pass initial screen, vs 5-HT, read-out: Antagonist KA ± SD, 5HT3A
[4] = read-out: Agonist EC50 ± SD, 5HT3A
[5] = competitive antagonist (^C), >10 = did not pass initial screen, vs (±)-epibatidine, read-out: Antagonist KA ± SD, α4β2
[6] = competitive antagonist (^C), >10 = did not pass initial screen, vs (±)-epibatidine, read-out: Antagonist KA ± SD, α7
[7] = non-competitive antagonist (^NC), read-out: Antagonist KA ± SD, α7, non-competitive
[8] = Antagonist KA ± SD, α4β2, competitive antagonist (^C), >10 = did not pass initial screen, vs (±)-epibatidine

c1cc2cc(-c3cn(CCCCN4CCOCC4)nn3)ccc2[nH]1 [IND6, 5-(1-(4-(Morpholin-4-yl)butyl)-1H-1,2,3-triazol-4-yl)-1H-indole]
EC50 (α7-nAChRs; [1]): 12.2 µM

c1cc2cc(-c3cn(CCN4CCNCC4)nn3)ccc2[nH]1 [IND9, 5-(1-(2-(Piperazin-1-yl)ethyl)-1H-1,2,3-triazol-4-yl)-1H-indole]
Functional properties at 5HT3A receptors (agonist / antagonist, type) (5HT3A receptors): mix-competitive antagonist

c1cc2cc(-c3cn(C4CCCNC4)nn3)ccc2[nH]1 (centres unmarked) [IND10, 5-(1-(Piperidin-3-yl)-1H-1,2,3-triazol-4-yl)-1H-indole]
Functional properties at 5HT3A receptors (agonist / antagonist, type) (5HT3A receptors): mix-competitive antagonist | EC50 (α7-nAChRs; [1]): 0.66 µM

c1cc2cc(-c3cn(CCN4CCCCCC4)nn3)ccc2[nH]1 [IND14, 5-(1-(2-(Azepan-1-yl)ethyl)-1H-1,2,3-triazol-4-yl)-1H-indole]
Functional properties at 5HT3A receptors (agonist / antagonist, type) (5HT3A receptors): competitive antagonism | EC50 (α7-nAChRs; [1]): 0.78 µM

c1cc2c(cc1-c1cn(CCN3CCCCC3)nn1)OCO2 [PPRD1, 1-(2-(4-(Benzo-1,3-dioxol-5-yl)-1,2,3-triazol-1-yl)ethyl)piperidine]
Kd (α4β2-nAChRs; [2]): > 10 µM | Kd (5HT3A receptors; [3]): > 10 µM | EC50 (5HT3A receptors; [4]): > 10 µM | EC50 (α7-nAChRs; [1]): 7.4 ± 0.7 µM

Nc1ccc(-c2cn(CCN3CCCCC3)nn2)cc1 [PPRD2, 1-(2-(4-Aminophenyl-1,2,3-triazol-1-yl)ethyl)piperidine]
Kd (α4β2-nAChRs; [5]): >10 µM | EC50 (5HT3A receptors; * partial agonist, >10 = did not pass initial screen, read-out: Agonist EC50 ± SD, 5HT3A): > 10 µM | Kd (5HT3A receptors; [3]): >10 µM | EC50 (α7-nAChRs; [1]): 0.38 µM

COc1ccc(-c2cn(CCN3CCCCC3)nn2)cc1 [PPRD3, 1-(2-(4-(4-Methoxyphenyl)-1,2,3-triazol-1-yl)ethyl)piperidine]
Kd (α4β2-nAChRs; [2]): > 10 µM | Kd (5HT3A receptors; [3]): > 10 µM | EC50 (5HT3A receptors; [4]): > 10 µM | Functional properties at α7-nAChRs (agonist / antagonist) (α7-nAChRs): partial agonists | EC50 (α7-nAChRs; [1]): 15 µM

Cc1ccc(-c2cn(CCN3CCCCC3)nn2)cc1 [PPRD4, 1-(2-(4-Tolyl-1,2,3-triazol-1-yl)ethyl)piperidine]
Kd (α4β2-nAChRs; [2]): > 10 µM | Kd (5HT3A receptors; [3]): > 10 µM | EC50 (5HT3A receptors; [4]): > 10 µM | EC50 (α7-nAChRs; [1]): 3.1 ± 0.8 µM

COc1ccc2cc(-c3cn(CCN4CCCCC4)nn3)ccc2c1 [PPRD6, 1-(2-(4-(6-Methoxynaphthalen-2-yl)-1H-1,2,3-triazol-1-yl)ethyl)piperidine]
Kd (α4β2-nAChRs; [2]): > 10 µM | Kd (5HT3A receptors; [3]): > 10 µM | EC50 (5HT3A receptors; [4]): > 10 µM | EC50 (α7-nAChRs; [1]): > 10 µM

Nc1ccc(-c2cn(CCN3CCCCC3)nn2)cc1 [PPRD8, 1-(2-(4-Aminophenyl-1,2,3-triazol-1-yl)ethyl)piperidine]
Kd (α4β2-nAChRs; [5]): >10 µM | Kd (5HT3A receptors; [3]): 39 µM | Functional properties at 5HT3A receptors (agonist / antagonist, type) (5HT3A receptors): competitive antagonist | EC50 (α7-nAChRs; [1]): 2.9 µM

Nc1ncnc2c1ncn2Cc1cn(CCN2CCCCC2)nn1 [PPRD10, 9-((1-(2-(Piperidin-1-yl)ethyl)-1,2,3-triazol-4-yl)methyl)-purin-6-amine]
Kd (α4β2-nAChRs; [2]): > 10 µM | Kd (5HT3A receptors; [3]): > 10 µM | EC50 (5HT3A receptors; [4]): > 10 µM | Kd (α7-nAChRs; [6]): 11.6 µM | EC50 (α7-nAChRs; [1]): > 10 µM | Kd (α7-nAChRs; [7]): 18.9 µM

COC(=O)c1ccc2[nH]cc(-c3cn(CCN4CCCCC4)nn3)c2c1 [PPRD11, Methyl 3-(1-(2-(piperidin-1-yl)ethyl)-1H-1,2,3-triazol-4-yl)-1H-indole-5-carboxylate]
Functional properties at α4β2-nAChRs (agonist / antagonist, type) (α4β2-nAChRs): α4β2-nAChR antagonists; also recorded: competitive antagonist | Kd (α4β2-nAChRs; [2]): 6.5 ± 1.7 µM | Kd (5HT3A receptors; [3]): > 10 µM | EC50 (5HT3A receptors; [4]): > 10 µM | Kd (α7-nAChRs; [6]): 6.6 ± 2.2 µM | Functional properties at α7-nAChRs (agonist / antagonist) (α7-nAChRs): weak and non-selective α7-nAChR antagonists | Kd (α7-nAChRs; [7]): 6.6 ± 1.7 µM

Clc1ccc(-c2cn(CCN3CCCCC3)nn2)cc1 [PPRD13, 1-(2-(4-(4-Chlorophenyl)-1,2,3-triazol-1-yl)ethyl)piperidine]
Kd (α4β2-nAChRs; [2]): > 10 µM | Kd (5HT3A receptors; [3]): > 10 µM | EC50 (5HT3A receptors; [4]): > 10 µM | Functional properties at α7-nAChRs (agonist / antagonist) (α7-nAChRs): partial agonists | EC50 (α7-nAChRs; [1]): 17.6 ± 4.6 µM

COc1ccc(-c2cn(C3CN4CCC3CC4)nn2)cc1 (centres unmarked) [QND3, 3-(4-(4-Methoxyphenyl)-1,2,3-triazol-1-yl)quinuclidine]
Kd (α4β2-nAChRs; [8]): > 10 µM | EC50 (5HT3A receptors): 5.7 ± 1.7 µM | Functional properties at 5HT3A receptors (agonist / antagonist, type) (5HT3A receptors): 5HT3A receptor agonist properties | EC50 (α7-nAChRs; [1]): 0.1 µM

Cc1ccc(-c2cn(C3CN4CCC3CC4)nn2)cc1 (centres unmarked) [QND4, 3-(4-Tolyl-1,2,3-triazol-1-yl)quinuclidine]
Kd (α4β2-nAChRs; [5]): >10 µM | Antagonist KA ± SD, 5HT3A (5HT3A receptors; competitive antagonist (^C), >10 = did not pass initial screen, vs 5-HT): 0.50 ± 0.27^C, μM | Functional properties at 5HT3A receptors (agonist / antagonist, type) (5HT3A receptors): antagonists and 5HT3A antagonist properties and mix-competitive antagonist | Antagonist KA ± SD, 5HT3A, non-competitive (5HT3A receptors; non-competitive antagonist (^NC)): 0.53 ± 0.18^NC μM | EC50 (α7-nAChRs; [1]): 0.2 µM

O=Cc1c[nH]c2ccc(-c3cn(C4CN5CCC4CC5)nn3)cc12 (centres unmarked) [QND5, 5-(1-(Quinuclidin-3-yl)-1,2,3-triazol-4-yl)-indole-3-carbaldehyde]
Kd (α4β2-nAChRs; [8]): > 10 µM | EC50 (5HT3A receptors; [4]): 0.16 ± 0.04 µM | EC50 (α7-nAChRs; [1]): 0.27 µM

c1ccc(-c2ccc(-c3cn(C4CN5CCC4CC5)nn3)cc2)cc1 (centres unmarked) [QND7, 3-(4-(Biphenyl-4-yl)-1,2,3-triazol-1-yl)quinuclidine]
Kd (α4β2-nAChRs; [8]): > 10 µM | Kd (5HT3A receptors; [3]): > 10 µM | EC50 (5HT3A receptors; [4]): > 10 µM | Kd (α7-nAChRs; Antagonist KA ± SD, α7, competitive antagonist (^C), >10 = did not pass initial screen, vs (±)-epibatidine): 6.7 ± 2.5 µM | Functional properties at α7-nAChRs (agonist / antagonist) (α7-nAChRs): antagonistic properties; also recorded: weak α7-nAChR antagonist | Kd (α7-nAChRs; [7]): 26 ± 10 µM

Nc1ncnc2c1ncn2Cc1cn(C2CN3CCC2CC3)nn1 (centres unmarked) [QND10, 9-((1-(Quinuclidin-3-yl)-1,2,3-triazol-4-yl)methyl)-purin-6-amine]
Kd (α4β2-nAChRs; [8]): > 10 µM | Kd (5HT3A receptors; [3]): > 10 µM | EC50 (5HT3A receptors; [4]): > 10 µM | EC50 (α7-nAChRs; [1]): 29.5 µM and 30 µM

COC(=O)c1ccc2[nH]cc(-c3cn(C4CN5CCC4CC5)nn3)c2c1 (centres unmarked) [QND11, Methyl 3-(1-(quinuclidin-3-yl)-1,2,3-triazol-4-yl)-indole-5-carboxylate]
Kd (α4β2-nAChRs; [8]): 9.3 ± 4.3 µM | Functional properties at α4β2-nAChRs (agonist / antagonist, type) (α4β2-nAChRs): competitive antagonism | Kd (α4β2-nAChRs; read-out: Antagonist KA ± SD, α4β2, non-competitive): 37 ± 22 µM | Functional properties at 5HT3A receptors (agonist / antagonist, type) (5HT3A receptors): antagonists; also recorded: non-competitive antagonist | Kd (5HT3A receptors; non-competitive antagonist (^NC), read-out: Antagonist KA ± SD, 5HT3A, non-competitive): 0.08 ± 0.01 µM | EC50 (α7-nAChRs; [1]): 1.61 ± 0.36 µM
